Measured values published in patent US11774396B2, “Systems and methods for patterning and spatial electrochemical mapping of cells” (President and Fellows of Harvard College, priority 2020, dated 2023).

How the values were obtained:
MDCK cells [1] = system: MDCK cells
From the text: This example describes a method using cross-electrode impedance mapping to quantify cell adhesion.
Ethylenediaminetetraacetic acid (EDTA) is applied to the cells. EDTA is a calcium chelator that removes Ca^2+ needed for integrin proteins to maintain cell adhesion.
FIG. 6b is a data plot showing mean normalized impedances for different regions of the cell culture over time as specified in the map 601. FIG. 6cc are histograms of the normalized impedance values before, during, and after a washout of EDTA across the array.

MDCK cells [2] = assay: Wound healing assay: electrochemical patterning and impedance mapping of regrowth; type: cell-based, Canine; details: 1 μM, over the course of 72 hours; control culture took ~3 days to fill in the wound
From the text: This example describes a combined application of both the cross-electrode impedance mapping and cell patterning is a wound healing assay.
These assays gauge cell growth rate and metabolism and can be useful for screening drugs affecting these parameters. Compared to the electrochemical patterning described herein, other tools mechanically generate a wound in a cell culture via a mechanical scratch which is both difficult to control and limiting in terms of wound pattern.
In this example, a wound is made in MDCK cells and then the growth is mapped in real-time. […] These patterns were defined by applying electrode currents of −10 nA for 40 s versus a Ag/AgCl pseudo reference electrode. The regrowth of the culture was then measured using the impedance mapping method.

| SMILES | time course over which the cells detach with EDTA applied (MDCK cells [1]; 5 mM EDTA application at t=~5 min) | time course over which the cells re-attach after EDTA washout (MDCK cells [1]; EDTA washed out by adding normal culture media) | regrowth of the wound in the cell culture (normalized cross-electrode impedance maps) (MDCK cells [2]) |
| --- | --- | --- | --- |
| O=C(O)CN(CCN(CC(=O)O)CC(=O)O)CC(=O)O [EDTA, Ethylenediaminetetraacetic acid] | ~50 min | ~200 min | – |
| C=C1[C@@H](C)[C@H]2[C@H](Cc3ccccc3)NC(=O)[C@]23OC(=O)/C=C/[C@H](O)CCC[C@@H](C)C/C=C/[C@H]3[C@@H]1O [cytochalasin B] | – | – | very little growth |
